In patent publication US12497396B2, “Nitrogen-containing heterocyclic derivatives, method therefor and application therefor as inhibitors of KRAS G12C for the treatment of cancers” (SHANGHAI HANSOH BIOMEDICAL CO., LTD., priority 2019, dated 2025):

Legend:
human KRAS G12C protein = target: T1, human KRAS G12C protein (Homo sapiens, UniProt P01116, G12C); assay: Thermal shift: melting temperature of KRAS G12C protein; format: binding; conditions: for Tm (° C.): KRAS G12C protein 5.37 μM with compound 10 μM, 1 hour incubation
T1 construct: purchased Beijing SinoBiological Co., Ltd. 12259-H07E2
Protocol: A solution containing […] (pH 7.5), 1 mM DTT, 5×SYPRO Orange and 150 mM NaCl was prepared as the experimental buffer, and a final concentration of 5.37 μM human KRAS G12C protein was added thereto. […] After incubating at room temperature in the dark for 1 hour, the PCR tube was put into the PCR instrument, QuantStudio Software v1.3 was opened, and the melting temperature of KRAS G12C protein in different treatment groups was detected by melt curve function (heating from 25° C. to 95° C., 0.03° C./s). The experimental data file of PCR instrument was imported into thermal shift software, and the melting temperature (Tm) of each treatment group was obtained, and the change value of melting temperature (Δ Tm) was obtained by subtracting the Tm of DMSO solvent control group.

[1] = test system: Mia PaCa-2 cells (KRAS G12C mutant cell line); assay: Inhibition of Mia PaCa-2 cell proliferation (CellTiter-Glo, 72 h); format: cell-based, human; conditions: Homo sapiens
From the text: (§1) As a preferred embodiment of the present disclosure, the detection method of NCI-H358 cell proliferation inhibitory activity and Mia PaCa-2 cell proliferation inhibitory activity is as follows: through cell culture, adding different concentrations of compound solutions to the cultured cells, continuing the culture for a period of time and measuring the cell proliferation; • further, the method of cell culture is: adjusting the cells to a suitable cell concentration with complete medium and spreading the cell suspension in well plates for culture; preferably, the culture conditions are 37° C., 5% CO2 incubator overnight; preferably, the cell suspension is spread in 96-well plates, 48-well plates, 24-well plates, 12-well plates or 6-well plates, more preferably 96-well plates; preferably, the suitable cell concentration is 1500-4000 cells/well, with 90 μL of cell suspension added to each well; • further, the compound solution is prepared with DMSO and may be further diluted with medium; preferably, the compound solution has a concentration gradient starting from 100 μM at 4-fold dilution, more preferably starting from 30 μM at 4-fold dilution, most preferably starting from 10 μM at 4-fold dilution; • further, the volume of the compound solution or solvent added to each well is 1-10 μL, preferably 10 μL; • further, after adding the compound solution, the conditions for continuing the culture are 37° C., 5% CO2 incubator; preferably, the culture time is 24-72 h, more preferably 72 h; • further, the method for measuring cell proliferation is MTT, CCK8, CellTiter-Glo; preferably the method is CellTiter-Glo; • further, the cell proliferation is read using a microplate reader, more preferably a BioTek Synergy H1 microplate reader.
(§2) When NCI-H358 or Mia PaCa-2 cells were cultured to the appropriate fusion level, the NCI-H358 or Mia PaCa-2 cells were collected, and the cells were adjusted to the appropriate cell concentration using a complete medium, and the cell suspension was spread in a 96-well plate, 90 μL per well, and placed in a 37° C., 5% CO2 incubator overnight; and compound solutions of different concentrations were prepared using DMSO and culture medium; and a solvent control was set, the compound solution was added to a 96-well plate, 10 μL per well, at 37° C. in a 5% CO2 incubator for 72 hours; CellTiter-Glo solution was added thereto and the mixture was mixed well by shaking, incubated for 10 min in the dark, and read by BioTek Synergy H1 microplate reader.
(§3) The luminescence signal values were used to calculate the inhibition rate, the concentration and the inhibition rate were fitted to a nonlinear regression curve using Graphpad Prism software, then the IC50 value was obtained.

[2] = test system: NCI-H358 cells (KRAS G12C mutant cell line); assay: Inhibition of NCI-H358 cell proliferation (CellTiter-Glo, 72 h); format: cell-based, human; conditions: Homo sapiens
From the text: as §1, §2, §3

in vitro = in vitro ADME; conditions: 0.5 μM
Protocol: Animal or human whole blood was collected, then the blood was put into a test tube containing anticoagulant, centrifuged at 3500 rpm for 10 min, and the upper layer of pale yellow plasma was collected. • 2), 10 μM of tested compound (m/M/V=C)
The compound was weighed, the stock solution was prepared with DMSO and the working solution was prepared with 100 mM phosphate buffer. • 3), 10 μM of positive control (1) Propantheline (Propantheline Mr=449.4 Da)
• 1) 285 μL of plasma and 15 μL of 10 μM compound (tested compound) were added in turn in a 96-well plate, and incubated at 37° C. • 2) 40 μL was taken out at 0, 15, 30, 60, 90, 120 min, respectively, and 160 μL of acetonitrile termination solution containing internal standard was added. • 3) After centrifugation (3500 rpm, 10 min), 50 μL of supernatant was taken out, and then diluted with 50 μL DDH2O and injected to LC-MS/MS.
• Instrument: Shimadzu LC-20 AD • Chromatographic column: phenomenex Gemiu® C18 (50*4.6 mm, 5 μM particle size); • mobile phase: A: acetonitrile, B: 0.1% formic acid solution […], 2.0-2.1 min: 90% A→5% A; flow rate: 0.8 mL/min; running time: 5.0 min; injection volume: 5 μL.
• Instrument: API4000 Liquid Chromatography-Mass Spectrometry, AB, USA; • the ion source was electrospray ionization source (ESI); • the temperature of dry gas (N2) was 500° C.; • electrospray voltage was 5500V; • the detection method was positive ion detection; • the scanning mode was selective response monitoring (MRM). • the scanning time was 0.1 s.

[3] = compound 10 μM, Tm minus Tm of DMSO solvent control

## C=CC(=O)N1[C@H](C)CN(c2nc(=O)n(-c3c(SC)ccnc3C(C)C)c3nc(-c4c(O)cccc4F)c(F)cc23)C[C@@H]1C [Embodiment 115, 4-((3S, 5R)-4-acryloyl-3,5-dimethylpiperazin-1-yl)-6-fluoro-7-(2-fluoro-6-hydroxyphenyl)-1-(2-isopropyl-4-(methylthio)pyridin-3-yl) pyrido [2,3-d] pyrimidin-2 (1H)-one]
Human KRAS G12C protein
  Tm (° C.): 55.2 °C
Human KRAS G12C protein; [3]
  ΔTm at 10 µM: 6.6 °C

## C=CC(=O)N1CCN(c2nc(=O)n(-c3c(SC)ccnc3C(C)C)c3nc(-c4c(O)ccc(F)c4F)c(F)cc23)[C@@H](C)C1 [Embodiment 153, 4-((S)-4-acryloyl-2-methylpiperazin-1-yl)-7-(2,3-difluoro-6-hydroxyphenyl)-6-fluoro-1-(2-isopropyl-4-(methylthio)pyridin-3-yl) pyrido [2,3-d] pyrimidin-2 (1H)-one]
[1]
  IC50: 76 nM
[2]
  IC50: 68 nM

## C=CC(=O)N1CCN(c2nc(=O)n(-c3c(SC)ccnc3C(C)C)c3nc(-c4c(F)cccc4F)c(F)cc23)[C@@H](C)C1 [Embodiment 154, (S)-4-(4-acryloyl-2-methylpiperazin-1-yl)-7-(2,6-difluorophenyl)-6-fluoro-1-(2-isopropyl-4-(methylthio)pyridin-3-yl)pyrido[2,3-d]pyrimidin-2(1H)-one]
[1]
  IC50: 68 nM
[2]
  IC50: 79 nM

## C=CC(=O)N1CCN(c2nc(=O)n(-c3c(SC)ccnc3C(C)C)c3nc(-c4c(O)cccc4F)c(F)cc23)[C@@H](C)C1 (single isomer, unassigned) [Embodiment 60-1]
[1]
  IC50: 55 nM
[2]
  IC50: 28 nM

## C=CC(=O)N1CCN(c2nc(=O)n(-c3c(SC)ccnc3C(C)C)c3nc(-c4c(N)c(C)cc(F)c4F)c(Cl)cc23)[C@@H](C)C1 [Embodiment 195, 4-((S)-4-acryloyl-2-methylpiperazin-1-yl)-7-(2-amino-5,6-difluoro-3-methylphenyl)-6-chloro-1-(2-isopropyl-4-(methylthio)pyridin-3-yl) pyrido [2,3-d] pyrimidin-2 (1H)-one]
[1]
  IC50: 5.2 nM

## CC(C)[N+](C)(CCOC(=O)C1c2ccccc2Oc2ccccc21)C(C)C [Propantheline, reference compound]
In vitro; human
  Residual rate (%) 0 min: 100.00%
  Residual rate (%) 15 min: 79.98%
  Residual rate (%) 30 min: 50.52%
  Residual rate (%) 60 min: 14.65%
  Residual rate (%) 120 min: 0.72%
In vitro; mouse
  Residual rate (%) 0 min: 100.00%
  Residual rate (%) 15 min: 79.79%
  Residual rate (%) 30 min: 48.66%
  Residual rate (%) 60 min: 23.39%
  Residual rate (%) 120 min: 6.66%

## C=CC(=O)N1CCN(c2nc(=O)n(-c3c(SC)ccnc3C(C)C)c3nc(-c4c(C)cccc4F)c(Cl)cc23)[C@@H](C)C1 [Embodiment 206, 4-((S)-4-acryloyl-2-methylpiperazin-1-yl)-6-chloro-7-(2-fluoro-6-methylphenyl)-1-(2-isopropyl-4-(methylthio)pyridin-3-yl) pyrido [2,3-d] pyrimidin-2 (1H)-one]
[1]
  IC50: 14 nM

## C=CC(=O)N1C[C@H](C)N(c2nc(=O)n(-c3c(SC)ccnc3C(C)C)c3nc(-c4c(N)c(C)cc(F)c4F)c(Cl)cc23)C[C@H]1C [Embodiment 201, 4-((2S, 5R)-4-acryloyl-2,5-dimethylpiperazin-1-yl)-7-(2-amino-5,6-difluoro-3-methylphenyl)-6-chloro-1-(2-isopropyl-4-(methylthio)pyridin-3-yl) pyrido [2,3-d] pyrimidin-2 (1H)-one]
[1]
  IC50: 4.9 nM

## C=CC(=O)N1C[C@H](C)N(c2nc(=O)n(-c3c(SC)ccnc3C(C)C)c3nc(-c4c(N)c(F)cc(Cl)c4F)c(Cl)cc23)C[C@H]1C [Embodiment 196, 4-((2S, 5R)-4-acryloyl-2,5-dimethylpiperazin-1-yl)-7-(2-amino-5-chloro-3,6-difluorophenyl)-6-chloro-1-(2-isopropyl-4-(methylthio)pyridin-3-yl) pyrido [2,3-d] pyrimidin-2 (1H)-one]
[1]
  IC50: 5.3 nM

## C=CC(=O)N1CCN(c2nc(=O)n(-c3c(SC)ccnc3C(C)C)c3nc(-c4c(F)cccc4Cl)c(Cl)cc23)[C@@H](C)C1 [Embodiment 208, 4-((S)-4-acryloyl-2-methylpiperazin-1-yl)-6-chloro-7-(2-chloro-6-fluorophenyl)-1-(2-isopropyl-4-(methylthio)pyridin-3-yl) pyrido [2,3-d] pyrimidin-2 (1H)-one]
[1]
  IC50: 59 nM

## C=CC(=O)N1CCN(c2nc(=O)n(-c3c(C)ccnc3C(C)C)c3nc(-c4c(F)cccc4C(=O)N(C)C)c(F)cc23)[C@@H](C)C1 [Embodiment 73]
Human KRAS G12C protein
  Tm (° C.): 55.5 °C
Human KRAS G12C protein; [3]
  ΔTm (° C.): 6.9 °C

## C=CC(=O)N1CCN(c2nc(=O)n(-c3c(C)ccnc3C(C)C)c3nc(-c4cccnc4SC)c(F)cc23)[C@@H](C)C1 [Embodiment 136, (S)-4-(4-acryloyl-2-methylpiperazin-1-yl)-6-fluoro-1-(2-isopropyl-4-methylpyridin-3-yl)-7-(2-(methylthio)pyridin-3-yl) pyrido [2,3-d] pyrimidin-2 (1H)-one]
Human KRAS G12C protein
  Tm (° C.): 57.3 °C
Human KRAS G12C protein; [3]
  ΔTm at 10 µM: 8.7 °C

## C=CC(=O)N1CCN(c2nc(=O)n(-c3c(SC)ccnc3C(C)C)c3nc(-c4c(F)ccc(F)c4N)c(Cl)cc23)[C@@H](C)C1 [Embodiment 198, 4-((S)-4-acryloyl-2-methylpiperazin-1-yl)-7-(2-amino-3,6-difluorophenyl)-6-chloro-1-(2-isopropyl-4-(methylthio)pyridin-3-yl)pyrido[2,3-d]pyrimidin-2(1H)-one]
[1]
  IC50: 6 nM

## C=CC(=O)N1CCN(c2nc(=O)n(-c3c(SC)ccnc3C(C)C)c3nc(-c4c(N)c(F)cc(Cl)c4F)c(Cl)cc23)[C@@H](C)C1 [Embodiment 194, 4-((S)-4-acryloyl-2-methylpiperazin-1-yl)-7-(2-amino-5-chloro-3,6-difluorophenyl)-6-chloro-1-(2-isopropyl-4-(methylthio)pyridin-3-yl) pyrido [2,3-d] pyrimidin-2 (1H)-one]
[1]
  IC50: 7 nM

## C=CC(=O)N1C[C@H](C)N(c2nc(=O)n(-c3c(SC)ccnc3C(C)C)c3nc(-c4c(N)c(Cl)cc(Cl)c4F)c(Cl)cc23)C[C@H]1C [Embodiment 193, 4-((2S, 5R)-4-acryloyl-2,5-dimethylpiperazin-1-yl)-7-(2-amino-3,5-dichloro-6-fluorophenyl)-6-chloro-1-(2-isopropyl-4-(methylthio)pyridin-3-yl) pyrido [2,3-d] pyrimidin-2 (1H)-one]
[1]
  IC50: 18 nM
